Data reported in ChEMBL document CHEMBL1155914 (Bioorg Med Chem, 2008).

Experiments:
Acetylcholinesterase [1] = target: T1, Acetylcholinesterase (Electrophorus electricus, UniProt O42275)
Description: Inhibition of Electrophorus electricus AChE by spectrophotometry

SH-SY5Y [2] = test: cells; conditions: Homo sapiens, read-out: INH
Description: Inhibition of potassium chloride-induced cytosolic calcium levels in human SH-SY5Y cells at 0.3 uM by fluorescence method relative to control

Acetylcholinesterase [3] = target: Acetylcholinesterase (Homo sapiens, UniProt P22303)
Description: Inhibition of human erythrocyte AChE by Ellman's method

Cholinesterase = Cholinesterase (Homo sapiens, UniProt P06276)
Description: Inhibition of human serum BuChE by Ellman's method

Acetylcholinesterase [4] = target: T1, Acetylcholinesterase; remark: listed apart in the source
Description: Inhibition of Electrophorus electricus AChE by Ellman's method

SH-SY5Y [5] = test: Antioxidant activity in human SH-SY5Y cells assessed as decrease in H2O2-induced reactive oxygen species generation at 0.3 uM by fluorescence method; type: functional; design: scale not given: the % may be the effect or the level left

Acetylcholinesterase (Homo sapiens, UniProt P22303), sequence (P22303 whole entry): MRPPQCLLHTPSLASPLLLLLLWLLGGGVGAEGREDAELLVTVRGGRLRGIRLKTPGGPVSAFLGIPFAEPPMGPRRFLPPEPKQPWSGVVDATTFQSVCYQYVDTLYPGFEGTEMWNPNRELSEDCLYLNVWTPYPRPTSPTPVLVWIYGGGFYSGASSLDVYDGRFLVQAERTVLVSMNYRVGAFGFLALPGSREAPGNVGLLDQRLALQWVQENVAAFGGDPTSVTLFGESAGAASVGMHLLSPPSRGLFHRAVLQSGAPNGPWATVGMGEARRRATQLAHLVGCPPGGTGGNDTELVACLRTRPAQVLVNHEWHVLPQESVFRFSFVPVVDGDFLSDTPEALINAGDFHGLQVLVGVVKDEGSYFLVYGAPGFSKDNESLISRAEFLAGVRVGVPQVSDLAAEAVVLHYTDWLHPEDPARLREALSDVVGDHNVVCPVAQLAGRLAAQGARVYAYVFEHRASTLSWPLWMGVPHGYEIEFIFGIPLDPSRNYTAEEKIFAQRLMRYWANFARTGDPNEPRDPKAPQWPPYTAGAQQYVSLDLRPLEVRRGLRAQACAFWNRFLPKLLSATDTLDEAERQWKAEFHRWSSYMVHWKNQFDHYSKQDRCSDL
T1 sequence (O42275 whole entry): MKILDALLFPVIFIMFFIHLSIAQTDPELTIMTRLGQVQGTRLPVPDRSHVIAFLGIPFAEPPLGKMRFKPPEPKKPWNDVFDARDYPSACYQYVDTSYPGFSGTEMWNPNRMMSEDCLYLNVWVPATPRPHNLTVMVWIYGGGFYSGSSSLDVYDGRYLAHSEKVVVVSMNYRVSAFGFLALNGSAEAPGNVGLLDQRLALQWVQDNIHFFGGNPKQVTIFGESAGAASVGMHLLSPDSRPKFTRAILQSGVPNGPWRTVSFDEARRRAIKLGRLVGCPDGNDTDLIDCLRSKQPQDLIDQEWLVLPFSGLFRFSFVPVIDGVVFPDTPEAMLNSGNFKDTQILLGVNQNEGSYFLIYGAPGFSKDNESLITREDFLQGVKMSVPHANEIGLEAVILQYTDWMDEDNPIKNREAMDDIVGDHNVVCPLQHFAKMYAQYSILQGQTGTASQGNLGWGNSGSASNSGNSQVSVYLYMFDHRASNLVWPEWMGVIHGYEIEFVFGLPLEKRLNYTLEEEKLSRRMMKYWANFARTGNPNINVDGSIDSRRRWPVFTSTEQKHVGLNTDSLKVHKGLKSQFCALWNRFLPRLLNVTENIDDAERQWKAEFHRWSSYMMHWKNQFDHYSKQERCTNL
Cholinesterase, sequence (P06276 whole entry): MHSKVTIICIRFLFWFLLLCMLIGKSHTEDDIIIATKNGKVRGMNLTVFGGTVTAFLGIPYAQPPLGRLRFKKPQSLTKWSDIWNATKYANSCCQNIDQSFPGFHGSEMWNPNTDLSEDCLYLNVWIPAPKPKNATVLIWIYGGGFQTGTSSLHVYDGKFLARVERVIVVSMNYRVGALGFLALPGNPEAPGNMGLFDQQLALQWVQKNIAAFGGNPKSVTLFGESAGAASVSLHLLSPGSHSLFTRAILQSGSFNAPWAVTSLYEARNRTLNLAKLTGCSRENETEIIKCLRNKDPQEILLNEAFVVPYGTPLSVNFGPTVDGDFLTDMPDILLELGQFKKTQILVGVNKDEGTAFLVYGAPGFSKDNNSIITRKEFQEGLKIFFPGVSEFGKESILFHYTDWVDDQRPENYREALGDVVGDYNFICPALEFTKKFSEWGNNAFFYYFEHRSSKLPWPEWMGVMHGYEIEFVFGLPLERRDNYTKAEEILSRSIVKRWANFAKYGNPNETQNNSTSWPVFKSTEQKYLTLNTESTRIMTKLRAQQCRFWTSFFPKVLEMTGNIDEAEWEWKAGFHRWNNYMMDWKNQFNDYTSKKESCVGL

SMILES	IC50 (Acetylcholinesterase [1]) [nM]	inhibition at 0.3 µM (SH-SY5Y [2]) [%]	IC50 (Acetylcholinesterase [3]) [nM]	IC50 (Cholinesterase) [nM]	Ki (Acetylcholinesterase [4]) [nM]	Activity (SH-SY5Y [5]) [%]
CCOC(=O)C1=C(C)Oc2nc3c(c(N)c2C1c1ccncc1)CCCC3 (centres undefined)	3000	–	–	–	–	–
CCOC(=O)c1c(C)nc2nc3c(c(N)c2c1-c1ccccc1)CCCC3	820	–	–	–	–	–
CCOC(=O)c1c(C)nc2nc3c(c(N)c2c1-c1ccncc1)CCCC3	1400	–	–	–	–	–
CCOC(=O)C1=C(C)Oc2nc3c(c(N)c2C1c1ccc(OC)cc1)CCCC3 (centres undefined)	870	–	–	–	–	–
CC1(C)CC(=O)C2=C(C1)Nc1nc3c(c(N)c1C2c1ccc(F)cc1)CCCC3 (centres undefined)	540	32.9	1600	> 100000	106	95.7
COc1ccc(C2C3=C(CC(C)(C)CC3=O)Nc3nc4c(c(N)c32)CCCC4)cc1 (centres undefined)	220	31	370	> 100000	41.9	87.8
CC1(C)CC(=O)C2=C(C1)Nc1nc3c(c(N)c1C2c1ccncc1)CCCC3 (centres undefined)	600	45.1	2800	> 100000	157	82.9
CC1(C)CC(=O)C2=C(C1)Oc1nc3c(c(N)c1C2c1ccccc1)CCCC3 (centres undefined)	49000	–	–	–	–	–
Cc1ccc(C2C3=C(CC(C)(C)CC3=O)Oc3nc4c(c(N)c32)CCCC4)cc1 (centres undefined)	52000	–	–	–	–	–
CC1(C)CC(=O)C2=C(C1)Nc1nc3c(c(N)c1C2c1ccccc1)CCCC3 (centres undefined)	320	24.6	710	> 100000	61.3	87.9
Cc1ccc(C2C3=C(CC(C)(C)CC3=O)Nc3nc4c(c(N)c32)CCCC4)cc1 (centres undefined)	230	30.9	670	> 100000	38.9	79.9
CC1(C)CC(=O)C2=C(C1)Oc1nc3c(c(N)c1C2c1ccc(F)cc1)CCCC3 (centres undefined)	70000	–	–	–	–	–
COc1ccc(C2C3=C(CC(C)(C)CC3=O)Oc3nc4c(c(N)c32)CCCC4)cc1 (centres undefined)	4100	–	–	–	–	–
CC[N+](C)(CC)CCC[n+]1c(-c2ccccc2)c2cc(N)ccc2c2ccc(N)cc21 [PROPIDIUM]	–	–	–	–	6800	–
